Measurements reported in patent publication US20230287044A1, “NOVEL ANTIBACTERIAL PEPTIDE AND USE THEREOF” (priority 2020, published 2023).
In brackets after ≈: the same amount, converted by molar mass. Square brackets hold non-standard residues; d marks the D form. Ends that are not written are not given here. Peptide text beside a SMILES is read from it. * marks the point of attachment. NH(β-GlcNAc) = CC(=O)N[C@@H]1[C@@H](O)[C@H](O)[C@@H](CO)O[C@H]1N*; dTrp(5-OMe) = COc1ccc2[nH]cc(C[C@@H](N)C(=O)O)c2c1

Legend:
[1] = tested on: MRPA (P. aeruginosa) CCARM 2180; assay type: cell-based, Pseudomonas aeruginosa; conditions: CCARM 2180, 18 h
Method: (§1) The minimum growth inhibitory concentrations of the antibacterial peptides of the present invention weremeasured, and the results are shown in Table 3 below.
(§2) Specifically, the strains were grown in CAMHB until the midlog phase, and then diluted with PBS buffer to 1× 10^6 cfu/ml to prepare the bacterial solution, and the antibacterial peptide prepared in Example 1above was diluted with CAMHB to 80 µM, 40 µM, 20 µM, 10 µM, 5 µM, 2.5 µM, 1.25 µM and 0.63 µM, and then the bacterial solution was treated with the same volume.
(§3) The results are the average value of three independent experiments.

[2] = tested on: MRAB (A. baumannii) ATCC BAA 1605; assay type: cell-based, Acinetobacter baumannii; conditions: ATCC BAA 1605, 18 h
Method: as §1, §2, §3

[3] = tested on: MRSA (S. aureus) KCCM 40510; assay type: cell-based, Staphylococcus aureus; conditions: KCCM 40510, 18 h
Method: as §1, §2, §3

[4] = tested on: VRE (E. faecalis) ATCC 51575; assay type: cell-based, Enterococcus faecalis; conditions: ATCC 51575, 18 h
Method: as §1, §2, §3

MIC MRPA (P. aeruginosa) CCARM 2180 [1] [µM] | MIC MRAB (A. baumannii) ATCC BAA 1605 [2] [µM] | MIC MRSA (S. aureus) KCCM 40510 [3] [µM] | MIC VRE (E. faecalis) ATCC 51575 [4] [µM] | Molecule
10 (≈ 15 µg/mL) | 1.25 (≈ 1.87 µg/mL) | 1.25 (≈ 1.87 µg/mL) | 2.5 (≈ 3.74 µg/mL) | CC[C@@H](C)[C@@H](NC(=O)[C@@H](Cc1c[nH]c2ccccc12)NC(=O)[C@@H](CC(C)C)NC(=O)[C@@H](CC(C)C)NC(=O)[C@H](N)Cc1c[nH]c2ccc(OC)cc12)C(=O)NCC(=O)N[C@H](CC(C)C)C(=O)N[C@H](CCCNC(=N)N)C(=O)N[C@H](CCCCN)C(=O)N[C@H](CCCCN)C(=O)N[C@H](CCCNC(=N)N)C(N)=O [KSH15, wMllwiglrkkr] (H-[dTrp(5-OMe)][dL][dL][dW][dI]G[dL][dR][dK][dK][dR]-NH2; N-terminus assumed)
2.5 (≈ 3.42 µg/mL) | 2.5 (≈ 3.42 µg/mL) | 1.25 (≈ 1.71 µg/mL) | 1.25 (≈ 1.71 µg/mL) | CC[C@@H](C)[C@@H](NC(=O)[C@@H](Cc1c[nH]c2ccccc12)NC(=O)[C@@H](CCCNC(=N)N)NC(=O)[C@@H](CCCNC(=N)N)NC(=O)[C@H](N)CCCNC(=N)N)C(=O)N[C@H](Cc1c[nH]c2ccccc12)C(=O)N[C@@H](C(=O)N[C@H](CC(C)C)C(=O)N[C@H](Cc1c[nH]c2ccccc12)C(N)=O)C(C)C [KSH73, rrrwiwvlw] (H-[dR][dR][dR][dW][dI][dW][dV][dL][dW]-NH2; N-terminus assumed)
20 (≈ 29.4 µg/mL) | 5 (≈ 7.35 µg/mL) | 20 (≈ 29.4 µg/mL) | 20 (≈ 29.4 µg/mL) | CC(C)[C@@H](NC(=O)[C@@H](Cc1c[nH]c2ccccc12)NC(=O)[C@@H](CCCNC(=N)N)NC(=O)[C@@H](CCCNC(=N)N)NC(=O)[C@H](N)CCCNC(=N)N)C(=O)N[C@H](Cc1c[nH]c2ccccc12)C(=O)N[C@@H](C(=O)N[C@@H](C(=O)N[C@H](Cc1c[nH]c2ccccc12)C(=O)N[C@H](CCCCN)C(N)=O)C(C)C)C(C)C [KSH57, rrrwvwvvwk] (H-[dR][dR][dR][dW][dV][dW][dV][dV][dW][dK]-NH2; N-terminus assumed)
2.5 (≈ 3.96 µg/mL) | 0.63 (≈ 0.999 µg/mL) | 1.25 (≈ 1.98 µg/mL) | 1.25 (≈ 1.98 µg/mL) | CC[C@@H](C)[C@@H](NC(=O)[C@@H](Cc1c[nH]c2ccccc12)NC(=O)[C@@H](CCCNC(=N)N)NC(=O)[C@@H](CCCNC(=N)N)NC(=O)[C@H](N)CCCNC(=N)N)C(=O)N[C@H](Cc1c[nH]c2ccccc12)C(=O)N[C@H](Cc1c[nH]c2ccccc12)C(=O)N[C@H](CC(C)C)C(=O)N[C@H](Cc1c[nH]c2ccccc12)C(=O)N[C@H](CCCCN)C(N)=O [KSH50, rrrwiwwlwk] (H-[dR][dR][dR][dW][dI][dW][dW][dL][dW][dK]-NH2; N-terminus assumed)
>40 | 5 | 20 | 20 | WLAWLYLRKKR-NH2 [LSH8]
10 (≈ 13.7 µg/mL) | 5 (≈ 6.86 µg/mL) | 10 (≈ 13.7 µg/mL) | 10 (≈ 13.7 µg/mL) | CC(C)[C@@H](NC(=O)[C@@H](Cc1c[nH]cn1)NC(=O)[C@@H](CCCNC(=N)N)NC(=O)[C@@H](CCCNC(=N)N)NC(=O)[C@H](N)CCCNC(=N)N)C(=O)N[C@H](Cc1c[nH]cn1)C(=O)N[C@@H](C(=O)N[C@@H](C(=O)N[C@H](Cc1c[nH]c2ccccc12)C(=O)N[C@H](CCCCN)C(N)=O)C(C)C)C(C)C [KSH58, rrrhvhvvwk] (H-[dR][dR][dR][dH][dV][dH][dV][dV][dW][dK]-NH2; N-terminus assumed)
5 (≈ 6.78 µg/mL) | 1.25 (≈ 1.7 µg/mL) | 0.63 (≈ 0.855 µg/mL) | 0.63 (≈ 0.855 µg/mL) | CC(C)[C@@H](NC(=O)[C@H](N)Cc1c[nH]c2ccccc12)C(=O)N[C@@H](C(=O)N[C@H](Cc1c[nH]c2ccccc12)C(=O)N[C@@H](C(=O)N[C@@H](C(=O)N[C@H](Cc1c[nH]c2ccccc12)C(=O)N[C@H](CCCCN)C(=O)N[C@H](CCCCN)C(=O)N[C@H](CCCCN)C(N)=O)C(C)C)C(C)C)C(C)C [KSH67, wvvwvvwkkk] (H-[dW][dV][dV][dW][dV][dV][dW][dK][dK][dK]-NH2; N-terminus assumed)
10 (≈ 14.4 µg/mL) | 10 (≈ 14.4 µg/mL) | 1.25 (≈ 1.8 µg/mL) | 1.25 (≈ 1.8 µg/mL) | CC(C)[C@@H](NC(=O)[C@@H](Cc1c[nH]c2ccccc12)NC(=O)[C@@H](CCCNC(=N)N)NC(=O)[C@@H](CCCNC(=N)N)NC(=O)[C@H](N)CCCNC(=N)N)C(=O)N[C@H](Cc1c[nH]c2ccccc12)C(=O)N[C@@H](C(=O)N[C@@H](C(=O)N[C@@H](C(=O)N[C@H](Cc1c[nH]c2ccccc12)C(N)=O)C(C)C)C(C)C)C(C)C [KSH82, rrrwvwvvvw] (H-[dR][dR][dR][dW][dV][dW][dV][dV][dV][dW]-NH2; N-terminus assumed)
40 | 2.5 | 10 | 10 | WVVWVYVRKKR-NH2 [LSH6]
10 (≈ 17.1 µg/mL) | 2.5 (≈ 4.27 µg/mL) | 1.25 (≈ 2.14 µg/mL) | 1.25 (≈ 2.14 µg/mL) | CC(=O)N[C@@H]1[C@@H](O)[C@H](O)[C@@H](CO)O[C@H]1NC(=O)C[C@H](NC(=O)[C@@H](CCCNC(=N)N)NC(=O)[C@@H](CCCNC(=N)N)NC(=O)[C@@H](CCCNC(=N)N)NC(=O)[C@@H](Cc1c[nH]c2ccccc12)NC(=O)[C@H](NC(=O)[C@H](NC(=O)[C@@H](Cc1c[nH]cn1)NC(=O)[C@H](NC(=O)[C@H](NC(=O)[C@H](N)Cc1c[nH]c2ccccc12)C(C)C)C(C)C)C(C)C)C(C)C)C(N)=O [KSH49, wvvhvvwrrrN] (H-[dW][dV][dV][dH][dV][dV][dW][dR][dR][dR]D(NH(β-GlcNAc))-NH2; N-terminus assumed)
40 (≈ 58.8 µg/mL) | 5 (≈ 7.35 µg/mL) | 10 (≈ 14.7 µg/mL) | 10 (≈ 14.7 µg/mL) | CC[C@H](C)[C@H](NC(=O)[C@H](Cc1c[nH]c2ccccc12)NC(=O)[C@@H](NC(=O)[C@H](CC(C)C)NC(=O)[C@@H](N)Cc1c[nH]c2ccccc12)C(C)C)C(=O)N[C@@H](Cc1c[nH]c2ccccc12)C(=O)N[C@@H](CCCNC(=N)N)C(=O)N[C@@H](CCCCN)C(=O)N[C@@H](CCCCN)C(=O)N[C@@H](CCCNC(=N)N)C(N)=O [LSH28]
5 (≈ 6.57 µg/mL) | 1.25 (≈ 1.64 µg/mL) | 1.25 (≈ 1.64 µg/mL) | 1.25 (≈ 1.64 µg/mL) | CC(C)[C@@H](NC(=O)[C@@H](Cc1c[nH]c2ccccc12)NC(=O)[C@@H](CCCNC(=N)N)NC(=O)[C@H](N)CCCNC(=N)N)C(=O)N[C@H](Cc1c[nH]c2ccccc12)C(=O)N[C@@H](C(=O)N[C@@H](C(=O)N[C@H](Cc1c[nH]c2ccccc12)C(=O)N[C@H](CCCCN)C(N)=O)C(C)C)C(C)C [KSH56, rrwvwvvwk] (H-[dR][dR][dW][dV][dW][dV][dV][dW][dK]-NH2; N-terminus assumed)
20 | 1.25 | 25 | 5 | WLLWVYVRKKR-NH2 [XSH2]
>40 | 2.5 | >40 | 10 | VWVWVWVRKKR-NH2 [LSH99]
5 (≈ 9.07 µg/mL) | 1.25 (≈ 2.27 µg/mL) | 5 (≈ 9.07 µg/mL) | 5 (≈ 9.07 µg/mL) | CC[C@@H](C)[C@@H](NC(=O)[C@@H](Cc1c[nH]c2ccccc12)NC(=O)[C@@H](CCCCN)NC(=O)[C@@H](CCCNC(=N)N)NC(=O)[C@H](N)CCCNC(=N)N)C(=O)N[C@H](Cc1c[nH]c2ccccc12)C(=O)N[C@H](Cc1c[nH]c2ccccc12)C(=O)N[C@H](CC(C)C)C(=O)N[C@H](Cc1c[nH]c2ccccc12)C(=O)N[C@H](CCCCN)C(=O)N[C@H](CCCCN)C(=O)N[C@H](CCCCN)C(N)=O [KSH52, rrkwiwwlwkkk] (H-[dR][dR][dK][dW][dI][dW][dW][dL][dW][dK][dK][dK]-NH2; N-terminus assumed)
40 | 5 | 10 | 10 | WLLWLYARKKR-NH2 [LSH9]
2.5 (≈ 3.42 µg/mL) | 0.63 (≈ 0.863 µg/mL) | 0.63 (≈ 0.863 µg/mL) | 0.63 (≈ 0.863 µg/mL) | CC[C@@H](C)[C@@H](NC(=O)[C@@H](Cc1c[nH]c2ccccc12)NC(=O)[C@@H](CCCNC(=N)N)NC(=O)[C@H](N)CCCNC(=N)N)C(=O)N[C@H](Cc1c[nH]c2ccccc12)C(=O)N[C@@H](C(=O)N[C@H](CC(C)C)C(=O)N[C@H](Cc1c[nH]c2ccccc12)C(=O)N[C@H](CCCNC(=N)N)C(N)=O)C(C)C [KSH54, rrwiwvlwr] (H-[dR][dR][dW][dI][dW][dV][dL][dW][dR]-NH2; N-terminus assumed)
>10 | 2.5 (≈ 3.21 µg/mL) | >10 | >10 | CC[C@@H](C)[C@@H](NC(=O)[C@@H](Cc1c[nH]c2ccccc12)NC(=O)[C@@H](C)NC(=O)[C@@H](C)NC(=O)[C@H](N)Cc1c[nH]c2ccccc12)C(=O)NCC(=O)N[C@H](CC(C)C)C(=O)N[C@H](CCCNC(=N)N)C(=O)N[C@H](CCCNC(=N)N)C(=O)N[C@H](CCCNC(=N)N)C(N)=O [KSH69, waawiglrrr] (H-[dW][dA][dA][dW][dI]G[dL][dR][dR][dR]-NH2; N-terminus assumed)
